Values quoted from earlier work, collected in patent US20110295365A1, “Anti-viral compositions and methods for administration” (Searete LLC, a limited liability corporation of the State …, priority 2010, published 2011).

Legend:
[1] = in vivo

Row | Molecule | inhibition of viral entry (varicella zoster virus) | passage across the placenta from mother to child [1]
1 | O=C[C@@H](O)[C@@H](O)[C@H](O)[C@H](O)COP(=O)(O)O [mannose 6-phosphate] | inhibition of viral entry | 
2 | enfuvirtide |  | do not efficiently pass from mother to child
3 | heparin | inhibition of viral entry | 
